From US11208412B2 (DAEGU-GYEONGBUK MEDICAL INNOVATION FOUNDATION, priority 2017, dated 2021) come the findings set out here.

Test in all cases: Kinase selectivity, DiscoverX scanMAX Kinase assay panel (% control)
What all share (type): binding

Assay [1] concerns the target T1, kinases of the scanMAX Kinase assay panel (Homo sapiens, UniProt Q9UBF8).
T1 construct: purchased DiscoverX Co. (contract measurement) scanMAX Kinase assay panel
The note with it: PIK4CB; 1 uM. How it is done:
(§1) The following experiment was performed to evaluate the activity of the compounds of the present invention to inhibit many enzymes.
(§2) Particularly, the compounds of Examples 8, 64 and 104 were selected among all of those compounds of the invention. DiscoverX Co. was asked to measure the enzyme (kinase) selectivity, and the experiment was performed using scanMAX™ Kinase assay panel.
(§3) Wherein, the concentration of the drug treated to each enzyme was 1 uM in DMSO and the control percentage (% control) was determined by the following Equation 1. (example compound−positive control)/(negative control−positive control)×100 [Equation 1]
(§4) Herein, the positive control indicates the compound showing the % control of 0%, and the negative control indicates DMSO showing the % control of 100%. The enzyme selectivity in the present invention is defined as follows: When the % control for each enzyme is less than 35% (<35%), it is judged that the compound has the activity to the corresponding enzyme.

Assay [2] deals with T2, kinases of the scanMAX Kinase assay panel (Homo sapiens, UniProt O00506).
T2 construct: purchased DiscoverX Co. (contract measurement) scanMAX Kinase assay panel
The following applies: kinase YSK1; 1 uM in DMSO. How it is done:
as §1, §2, §3, §4

For assay [3], the target named is T3, kinases of the scanMAX Kinase assay panel (Homo sapiens, UniProt P36894).
T3 construct: purchased DiscoverX Co. (contract measurement) scanMAX Kinase assay panel
T3 sequence (P36894 24-532): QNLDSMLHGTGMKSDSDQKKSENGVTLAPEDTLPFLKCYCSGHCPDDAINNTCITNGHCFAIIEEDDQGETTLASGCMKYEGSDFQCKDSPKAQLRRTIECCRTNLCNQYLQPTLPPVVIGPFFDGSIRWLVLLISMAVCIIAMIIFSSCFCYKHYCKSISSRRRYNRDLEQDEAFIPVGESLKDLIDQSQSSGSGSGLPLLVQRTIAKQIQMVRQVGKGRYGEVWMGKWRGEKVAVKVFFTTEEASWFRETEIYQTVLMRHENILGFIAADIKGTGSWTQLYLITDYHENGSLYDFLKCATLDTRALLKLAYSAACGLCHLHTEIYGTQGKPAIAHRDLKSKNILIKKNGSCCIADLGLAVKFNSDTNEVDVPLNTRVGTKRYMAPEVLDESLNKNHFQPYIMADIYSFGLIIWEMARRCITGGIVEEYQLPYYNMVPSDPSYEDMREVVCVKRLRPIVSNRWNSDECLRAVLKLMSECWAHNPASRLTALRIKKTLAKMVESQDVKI
The note with it: BMPR1A; 1 uM. How it is done:
as §1, §2, §3, §4

Assay [4] concerns the target T4, kinases of the scanMAX Kinase assay panel (Homo sapiens, UniProt P16591).
T4 construct: purchased DiscoverX Co. (contract measurement) scanMAX Kinase assay panel
The note with it: FER; 1 uM. How it is done: as §1, §2, §3, §4

The target in assay [5] is T5, kinases of the scanMAX Kinase assay panel (Homo sapiens, UniProt P00533).
T5 construct: purchased DiscoverX Co. (contract measurement) scanMAX Kinase assay panel
The following applies: EGFR; 1 uM. How it is done:
as §1, §2, §3, §4

For assay [6], the target named is T6, kinases of the scanMAX Kinase assay panel (Homo sapiens, UniProt Q16659).
T6 construct: purchased DiscoverX Co. (contract measurement) scanMAX Kinase assay panel
T6 sequence (Q16659 whole entry): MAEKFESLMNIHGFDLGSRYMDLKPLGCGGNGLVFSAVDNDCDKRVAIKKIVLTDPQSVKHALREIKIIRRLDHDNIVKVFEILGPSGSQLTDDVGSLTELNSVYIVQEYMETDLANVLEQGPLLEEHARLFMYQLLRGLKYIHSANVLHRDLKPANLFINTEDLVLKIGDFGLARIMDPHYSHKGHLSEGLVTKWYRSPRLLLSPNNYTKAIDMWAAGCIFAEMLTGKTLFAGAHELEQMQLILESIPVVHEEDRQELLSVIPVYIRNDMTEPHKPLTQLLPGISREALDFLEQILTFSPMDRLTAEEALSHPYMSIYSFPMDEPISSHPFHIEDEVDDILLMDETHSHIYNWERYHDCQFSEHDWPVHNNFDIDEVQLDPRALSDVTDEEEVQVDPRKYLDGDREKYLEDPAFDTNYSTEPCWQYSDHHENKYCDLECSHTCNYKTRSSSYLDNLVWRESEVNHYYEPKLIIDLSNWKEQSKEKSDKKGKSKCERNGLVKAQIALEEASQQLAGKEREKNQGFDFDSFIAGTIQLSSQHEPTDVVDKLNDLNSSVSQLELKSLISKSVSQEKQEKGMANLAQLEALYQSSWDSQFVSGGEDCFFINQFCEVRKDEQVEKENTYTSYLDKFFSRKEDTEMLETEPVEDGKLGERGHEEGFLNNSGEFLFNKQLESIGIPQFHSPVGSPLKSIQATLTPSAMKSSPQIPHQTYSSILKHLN
The note with it: ERK3; 1 uM. How it is done: as §1, §2, §3, §4

Assay [7] deals with T7, kinases of the scanMAX Kinase assay panel (Homo sapiens, UniProt Q9Y616).
T7 construct: purchased DiscoverX Co. (contract measurement) scanMAX Kinase assay panel
T7 sequence (Q9Y616 1-596): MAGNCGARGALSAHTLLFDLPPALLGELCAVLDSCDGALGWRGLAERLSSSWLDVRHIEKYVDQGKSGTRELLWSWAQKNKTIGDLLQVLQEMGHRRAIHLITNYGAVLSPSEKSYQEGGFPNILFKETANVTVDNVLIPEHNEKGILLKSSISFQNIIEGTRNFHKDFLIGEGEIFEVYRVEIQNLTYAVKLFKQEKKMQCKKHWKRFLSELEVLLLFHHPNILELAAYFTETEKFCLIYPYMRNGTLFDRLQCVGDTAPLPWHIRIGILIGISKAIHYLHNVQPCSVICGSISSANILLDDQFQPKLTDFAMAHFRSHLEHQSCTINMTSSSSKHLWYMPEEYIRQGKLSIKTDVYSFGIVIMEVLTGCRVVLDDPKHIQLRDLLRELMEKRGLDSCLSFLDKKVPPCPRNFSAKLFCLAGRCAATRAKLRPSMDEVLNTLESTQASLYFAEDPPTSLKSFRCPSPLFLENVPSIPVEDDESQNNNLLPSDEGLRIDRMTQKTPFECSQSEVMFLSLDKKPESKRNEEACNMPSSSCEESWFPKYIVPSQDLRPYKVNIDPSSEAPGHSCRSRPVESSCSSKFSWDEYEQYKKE
The following applies: IRAK3; 1 uM. The protocol:
as §1, §2, §3, §4

Assay [8] has as its target T8, kinases of the scanMAX Kinase assay panel (Homo sapiens, UniProt P09619).
T8 construct: purchased DiscoverX Co. (contract measurement) scanMAX Kinase assay panel
The following applies: PDGFRB; 1 uM. How it is done:
as §1, §2, §3, §4

In assay [9] the target is T9, kinases of the scanMAX Kinase assay panel (Homo sapiens, UniProt P42681).
T9 construct: purchased DiscoverX Co. (contract measurement) scanMAX Kinase assay panel
T9 sequence (P42681 1-527): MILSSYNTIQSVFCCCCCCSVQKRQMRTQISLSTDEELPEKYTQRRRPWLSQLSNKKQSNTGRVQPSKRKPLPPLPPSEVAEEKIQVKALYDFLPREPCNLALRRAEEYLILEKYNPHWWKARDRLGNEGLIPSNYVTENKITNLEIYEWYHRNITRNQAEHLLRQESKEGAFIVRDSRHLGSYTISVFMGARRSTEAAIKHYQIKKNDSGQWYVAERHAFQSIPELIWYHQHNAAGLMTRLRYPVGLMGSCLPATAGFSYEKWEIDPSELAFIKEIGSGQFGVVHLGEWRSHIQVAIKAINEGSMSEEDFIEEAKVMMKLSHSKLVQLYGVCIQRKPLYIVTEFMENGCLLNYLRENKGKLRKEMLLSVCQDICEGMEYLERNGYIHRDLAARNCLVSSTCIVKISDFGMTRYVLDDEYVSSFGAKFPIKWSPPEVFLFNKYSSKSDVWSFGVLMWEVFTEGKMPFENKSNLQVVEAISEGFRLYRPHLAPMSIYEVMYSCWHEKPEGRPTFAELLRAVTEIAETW
The following applies: kinase TXK; 1 uM in DMSO. The protocol:
as §1, §2, §3, §4

Assay [10] addresses T10, kinases of the scanMAX Kinase assay panel (Homo sapiens, UniProt P23443).
T10 construct: purchased DiscoverX Co. (contract measurement) scanMAX Kinase assay panel
The following applies: kinase S6K1; 1 uM in DMSO. How it is done:
as §1, §2, §3, §4

The target of assay [11] is T11, kinases of the scanMAX Kinase assay panel (Homo sapiens, UniProt Q99640).
T11 construct: purchased DiscoverX Co. (contract measurement) scanMAX Kinase assay panel
T11 sequence (Q99640 1-499): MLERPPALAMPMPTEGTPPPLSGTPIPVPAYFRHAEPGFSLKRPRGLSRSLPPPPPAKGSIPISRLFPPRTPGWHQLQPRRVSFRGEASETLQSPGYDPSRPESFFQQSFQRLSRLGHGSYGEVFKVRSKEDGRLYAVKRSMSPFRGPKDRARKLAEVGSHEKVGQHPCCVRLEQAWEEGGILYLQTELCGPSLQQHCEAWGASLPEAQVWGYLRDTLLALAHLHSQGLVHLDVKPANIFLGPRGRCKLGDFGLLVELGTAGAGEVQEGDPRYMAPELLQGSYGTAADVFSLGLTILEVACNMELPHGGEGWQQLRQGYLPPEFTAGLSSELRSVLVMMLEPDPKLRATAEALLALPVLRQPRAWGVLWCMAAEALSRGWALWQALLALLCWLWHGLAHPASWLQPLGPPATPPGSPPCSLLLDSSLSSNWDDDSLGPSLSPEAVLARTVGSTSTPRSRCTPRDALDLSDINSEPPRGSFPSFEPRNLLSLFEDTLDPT
The following applies: PKMYT1; 1 uM. The protocol:
as §1, §2, §3, §4

Assay [12] has as its target T12, kinases of the scanMAX Kinase assay panel (Homo sapiens, UniProt Q04912).
T12 construct: purchased DiscoverX Co. (contract measurement) scanMAX Kinase assay panel
The note with it: MST1R; 1 uM. How it is done: as §1, §2, §3, §4

For assay [13], the target named is T13, kinases of the scanMAX Kinase assay panel (Homo sapiens, UniProt P48729).
T13 construct: purchased DiscoverX Co. (contract measurement) scanMAX Kinase assay panel
T13 sequence (P48729 whole entry): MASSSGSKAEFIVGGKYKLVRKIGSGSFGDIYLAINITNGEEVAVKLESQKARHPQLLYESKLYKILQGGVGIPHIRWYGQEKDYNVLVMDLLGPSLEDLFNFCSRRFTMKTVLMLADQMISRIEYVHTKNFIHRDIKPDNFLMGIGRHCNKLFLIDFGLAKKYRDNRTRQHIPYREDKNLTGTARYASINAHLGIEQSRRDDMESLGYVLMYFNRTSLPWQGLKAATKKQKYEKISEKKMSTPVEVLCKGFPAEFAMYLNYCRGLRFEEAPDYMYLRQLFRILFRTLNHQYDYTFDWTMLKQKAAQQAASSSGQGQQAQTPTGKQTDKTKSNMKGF
The following applies: CSNK1A1; 1 uM. How it is done: as §1, §2, §3, §4

T4 sequence (P16591 whole entry): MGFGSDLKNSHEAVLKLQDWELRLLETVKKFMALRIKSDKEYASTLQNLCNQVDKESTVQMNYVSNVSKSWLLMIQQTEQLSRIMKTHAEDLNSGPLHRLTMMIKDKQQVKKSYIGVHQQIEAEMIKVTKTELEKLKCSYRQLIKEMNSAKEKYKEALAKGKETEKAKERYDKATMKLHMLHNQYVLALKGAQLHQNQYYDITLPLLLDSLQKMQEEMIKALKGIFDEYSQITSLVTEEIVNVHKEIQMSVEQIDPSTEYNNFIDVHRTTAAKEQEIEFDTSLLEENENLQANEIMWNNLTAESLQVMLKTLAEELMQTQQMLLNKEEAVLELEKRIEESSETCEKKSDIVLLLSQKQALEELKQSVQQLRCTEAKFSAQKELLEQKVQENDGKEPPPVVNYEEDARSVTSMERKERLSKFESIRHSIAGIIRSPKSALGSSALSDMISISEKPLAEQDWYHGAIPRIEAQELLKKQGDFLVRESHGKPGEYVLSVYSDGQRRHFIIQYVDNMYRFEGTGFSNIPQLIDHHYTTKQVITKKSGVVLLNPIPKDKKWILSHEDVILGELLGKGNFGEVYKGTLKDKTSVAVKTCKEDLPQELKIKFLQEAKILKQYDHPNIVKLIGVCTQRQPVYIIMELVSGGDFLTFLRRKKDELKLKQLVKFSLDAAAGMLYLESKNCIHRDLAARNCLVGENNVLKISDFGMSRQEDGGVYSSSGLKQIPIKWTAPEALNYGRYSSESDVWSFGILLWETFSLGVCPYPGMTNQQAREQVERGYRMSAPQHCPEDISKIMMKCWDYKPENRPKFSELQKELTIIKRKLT
T8 sequence (P09619 33-1106): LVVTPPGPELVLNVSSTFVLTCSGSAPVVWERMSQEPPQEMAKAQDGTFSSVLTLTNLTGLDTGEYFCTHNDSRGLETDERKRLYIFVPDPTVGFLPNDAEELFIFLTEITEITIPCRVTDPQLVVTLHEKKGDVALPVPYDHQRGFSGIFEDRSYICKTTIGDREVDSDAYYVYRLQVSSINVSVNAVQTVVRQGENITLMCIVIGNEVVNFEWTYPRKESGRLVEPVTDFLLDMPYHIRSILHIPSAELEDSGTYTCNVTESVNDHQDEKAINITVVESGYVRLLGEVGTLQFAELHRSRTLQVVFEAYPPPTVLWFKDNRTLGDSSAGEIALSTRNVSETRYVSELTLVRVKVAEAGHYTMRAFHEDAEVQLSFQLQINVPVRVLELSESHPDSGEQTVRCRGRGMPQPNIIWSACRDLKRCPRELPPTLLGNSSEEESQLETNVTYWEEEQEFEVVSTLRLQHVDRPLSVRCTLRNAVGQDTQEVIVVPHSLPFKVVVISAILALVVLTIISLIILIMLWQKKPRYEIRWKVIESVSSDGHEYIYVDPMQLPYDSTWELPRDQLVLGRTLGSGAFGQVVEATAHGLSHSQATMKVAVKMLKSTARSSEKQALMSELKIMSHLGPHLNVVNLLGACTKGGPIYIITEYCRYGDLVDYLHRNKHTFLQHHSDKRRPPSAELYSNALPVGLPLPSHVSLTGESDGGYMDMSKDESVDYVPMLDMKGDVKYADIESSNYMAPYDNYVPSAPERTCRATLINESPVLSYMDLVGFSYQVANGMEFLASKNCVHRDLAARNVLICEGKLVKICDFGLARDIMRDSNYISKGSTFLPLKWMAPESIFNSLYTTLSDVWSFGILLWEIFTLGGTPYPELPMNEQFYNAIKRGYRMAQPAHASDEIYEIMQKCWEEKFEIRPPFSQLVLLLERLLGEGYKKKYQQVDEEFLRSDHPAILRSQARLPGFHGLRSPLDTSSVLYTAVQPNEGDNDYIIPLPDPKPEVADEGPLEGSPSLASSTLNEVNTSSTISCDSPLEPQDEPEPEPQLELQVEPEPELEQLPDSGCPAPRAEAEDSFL
T1 sequence (Q9UBF8 whole entry): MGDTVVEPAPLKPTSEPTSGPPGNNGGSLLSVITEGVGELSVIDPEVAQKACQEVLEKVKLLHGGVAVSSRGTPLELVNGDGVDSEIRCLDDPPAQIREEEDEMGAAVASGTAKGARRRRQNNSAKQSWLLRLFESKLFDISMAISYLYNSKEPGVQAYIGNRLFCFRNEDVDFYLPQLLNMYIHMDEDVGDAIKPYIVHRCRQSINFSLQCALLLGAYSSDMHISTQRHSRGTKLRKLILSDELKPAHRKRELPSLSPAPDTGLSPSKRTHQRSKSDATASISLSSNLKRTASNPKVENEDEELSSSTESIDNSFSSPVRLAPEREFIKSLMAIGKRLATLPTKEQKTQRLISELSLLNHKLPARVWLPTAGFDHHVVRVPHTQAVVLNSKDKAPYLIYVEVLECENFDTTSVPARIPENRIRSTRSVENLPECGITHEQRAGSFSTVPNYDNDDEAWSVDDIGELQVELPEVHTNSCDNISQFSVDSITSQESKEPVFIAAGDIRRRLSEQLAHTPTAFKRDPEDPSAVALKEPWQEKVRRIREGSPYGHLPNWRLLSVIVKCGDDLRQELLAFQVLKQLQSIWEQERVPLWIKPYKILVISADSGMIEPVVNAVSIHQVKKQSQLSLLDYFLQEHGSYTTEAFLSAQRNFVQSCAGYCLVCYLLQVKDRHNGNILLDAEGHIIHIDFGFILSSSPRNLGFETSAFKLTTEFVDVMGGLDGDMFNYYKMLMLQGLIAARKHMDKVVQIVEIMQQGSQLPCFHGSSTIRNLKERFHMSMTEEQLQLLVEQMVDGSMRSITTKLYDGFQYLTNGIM
T10 sequence (P23443 whole entry): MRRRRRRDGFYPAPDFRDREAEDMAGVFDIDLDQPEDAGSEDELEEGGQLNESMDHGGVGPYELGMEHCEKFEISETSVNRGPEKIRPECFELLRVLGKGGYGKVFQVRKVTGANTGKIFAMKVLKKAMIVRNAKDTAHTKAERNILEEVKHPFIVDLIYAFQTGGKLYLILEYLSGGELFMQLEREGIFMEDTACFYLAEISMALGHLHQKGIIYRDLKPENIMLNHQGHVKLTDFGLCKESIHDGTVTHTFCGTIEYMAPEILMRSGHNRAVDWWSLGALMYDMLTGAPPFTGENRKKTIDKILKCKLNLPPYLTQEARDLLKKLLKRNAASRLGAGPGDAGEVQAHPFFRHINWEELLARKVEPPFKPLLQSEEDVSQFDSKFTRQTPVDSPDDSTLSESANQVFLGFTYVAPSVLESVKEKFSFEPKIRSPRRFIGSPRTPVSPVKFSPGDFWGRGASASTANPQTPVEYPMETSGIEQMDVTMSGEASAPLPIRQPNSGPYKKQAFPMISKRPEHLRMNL

`CNc1nc(Nc2ccc(C(=O)N3CCOCC3)cc2OC)nc2[nH]cc(C#N)c12` [Example 1, 2-((2-methoxy-4-(morpholine-4-carbonyl)phenyl)amino)-4-(methylamino)-7H-pyrrolo[2,3-d]pyrimidine-5-carbonitrile]: the remaining binding at 1 µM amounted to 61% in [1]; 97% in assay [2]; 94% in [3]; 15% in assay [4]; 91% in assay [5]; 89% in assay [6]. Moreover, the remaining binding at 1 µM in assay [7] was found to be 90%; in [8], 84%; in assay [9], 100%; in [10], 70%; in assay [11] it was 99%; in [12], 88%. This compound also displayed a remaining binding at 1 µM in assay [13] of 19%.

With `CC1(Nc2nc(Nc3cnn([C@H]4CCN(C5COC5)C[C@@H]4F)c3Cl)nc3[nH]cc(C#N)c23)CC1` [Example 52, 2-((5-chloro-1-((3S,4S)-3-fluoro-1-(oxetane-3-yl)piperidine-4-yl)-1H-pyrazole-4-yl)amino)((1-methylcyclopropyl)amino)-7H-pyrrolo[2,3-d]pyrimidine-5-carbonitrile], the remaining binding at 1 µM stood at 60% in [1]; 28% in assay [2]; 100% in [3]; 0.25% in assay [4]; 31% in [5]; 54% in assay [6]. Moreover, the remaining binding at 1 µM worked out at 3.9% in [7]; 0.35% in [8]; 40% in assay [9]; 52% in assay [10]; 89% in assay [11]; 78% in assay [12]. For the same compound, the remaining binding at 1 µM in [13] stood at 1.6%.

With `CCNc1nc(Nc2ccc(C(=O)N3CCC(N4CCOCC4)CC3)cc2OC)nc2[nH]cc(C(F)(F)F)c12` [Example 104, (4-((4-(ethylamino)-5-(trifluoromethyl)-7H-pyrrolo[2,3-d]pyrimidine-2-yl)amino)-3-methoxyphenyl)(4-morpholinopiperidine-1-yl)methanone], the remaining binding at 1 µM in assay [1] was found to be 99%; in [2] it was 81%; in [3], 100%; in assay [4], 3%; in assay [5], 82%; in assay [6], 95%. Also, the remaining binding at 1 µM in assay [7] was 26%; in [8], 60%; in assay [9], 100%; in [10], 80%; in assay [11] it was 100%; in [12], 95%. Further, in assay [13], the remaining binding at 1 µM amounted to 56%.
